The source of these data is patent US11993576B2, “N-benzyl-N-arylsulfonamide derivative and preparation and use thereof” (Hangzhou Yirui Pharmaceutical Technology Co., Ltd, priority 2019, dated 2024).

Assay [1] has as its target T1, human Kv1.3 (Homo sapiens, UniProt P22001). As to the kind of experiment: Conventional patch clamp assay of inhibitory activity against Kv1.3. In kind it is cell-based. The following applies: conventional patch-clamp method; CHO-K1 cells stably expressing human Kv1.3. The source says: II. Conventional Patch Clamp Assay of Inhibitory Activity Against Kv1.3
In order to compare the influence of different assay methods on the inhibitory activity of a compound, the conventional patch clamp method was used to assay the inhibitory activities of compounds 21, 37, 44, 61 against Kv1.3. The principle and method for the conventional patch clamp method can be found in Grissmer et al. [Grissmer et al. Molecular Pharmacology 1994, 45:1227-1234].
Inhibitory activity of the compounds against Kv1.3 was assessed using a CHO-K1 recombinant cell line stably expressing human Kv1.3 (Charles River, California). The cells were cultured in an F-12K culture medium containing 5% calf serum (Invitrogen, Carlsbad.ca) in an incubator at 37° C. and under air humidity with 6% CO2.
During the experiment, adherent cells were placed in a recording chamber under an inverted microscope. All the experiments were performed at room temperature. Each of the cells used itself as the control.
The test compounds were formulated to their final concentrations on the day of assay, and then dissolved in an extracellular fluid. The extracellular fluid (mM) was: NaCl, 137; KCl, 4; CaCl2, 1.8; MgCl2, 1; HEPES, 10; glucose 10; pH 7.4 (NaOH titration). All the solutions of the test compounds and the control compounds contained 0.3% of DMSO.
Each of the compounds was perfused by a gravity-driven perfusion system. At least two cells were tested for each of the concentrations of a compound. After the current was stable, the blocking effect of the compounds was calculated by comparing the change in the current before and after administration of the compounds. 1000 μM 4-AP was used as a positive control.
The cells were transferred to a perfusion chamber, and were perfused with the extracellular fluid. Intracellular fluid (mM): K-aspartate, 130; MgCl2, 5; EGTA 5; HEPES, 10; pH 7.2 (KOH titration). The intracellular fluid was stored in a small amount in a refrigerator at −80° C. in batches, and was thawed on the day of the experiment. The electrodes were drawn by PC-10 (Narishige, Japan). A whole-cell patch-clamp recording was performed, with the noise being filtered by one-fifth of the sampling frequency.
The cells were clamped at −80 mV and then depolarized to 0 mV with square waves lasting for 2 seconds to obtain a Kv1.3 current. This process was repeated every 20 seconds. The maximum current elicited by the square waves was detected. After the maximum current became stable, the test compounds were perfused. After the reaction was stable, the blocking strength was calculated.
Data was collected and analyzed using pCLAMP 10 (Molecular Devices, Union City, CA). A stable current meant a current which varies within a limited range over time. […]

Assay [2] concerns the target T1, human Kv1.3. As to the kind of experiment: IonWorks automated patch clamp assay of inhibitory activity against Kv1.3. In kind it is cell-based. The settings on record: automated patch clamp method; CHO-K1 cells stably expressing human Kv1.3. The procedure, abridged:
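CHO-K1 cells stably expressing human Kv1.3, perforated-patch IonWorks Quattro (amphotericin B 200 μg/mL internal), external solution pH 7.3. Compounds 0.00384-30 μM final, 0.3% DMSO, 600 s incubation; four 1 s pulses to 0 mV from −80 mV. Inhibition from peak current ratio after/before compound.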
A general note: In patch-clamp work, channel activity is measured electrically.

Each structure is given as a SMILES string.

T1 sequence (P22001 whole entry): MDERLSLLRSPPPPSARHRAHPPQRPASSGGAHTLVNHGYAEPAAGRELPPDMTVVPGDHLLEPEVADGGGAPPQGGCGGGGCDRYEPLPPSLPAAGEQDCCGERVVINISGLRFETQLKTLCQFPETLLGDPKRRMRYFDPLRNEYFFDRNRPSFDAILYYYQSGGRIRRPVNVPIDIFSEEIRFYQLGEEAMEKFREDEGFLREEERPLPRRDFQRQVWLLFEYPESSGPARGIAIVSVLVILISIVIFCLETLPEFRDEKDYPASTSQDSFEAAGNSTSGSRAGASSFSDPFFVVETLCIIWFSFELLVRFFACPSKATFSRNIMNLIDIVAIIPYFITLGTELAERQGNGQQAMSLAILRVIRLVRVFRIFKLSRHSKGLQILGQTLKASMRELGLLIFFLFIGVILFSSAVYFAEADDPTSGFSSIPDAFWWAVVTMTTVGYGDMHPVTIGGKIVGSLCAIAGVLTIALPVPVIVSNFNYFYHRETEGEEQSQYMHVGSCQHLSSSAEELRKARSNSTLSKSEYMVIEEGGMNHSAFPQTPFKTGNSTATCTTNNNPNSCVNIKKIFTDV

As usually defined, the IC50 is the point on the concentration scale where inhibition reaches its midpoint. With `CC(C)CS(=O)(=O)N(Cc1ccc(F)cc1)c1ccc(N2CCN(C(=O)N(C)C)CC2)c(C#N)c1` [Compound 37, 4-(2-cyano-4-((N-(4-fluorobenzyl)-2-methylpropyl)sulfonamido)phenyl)-N,N-dimethylpiperazin-1-formamide], the IC50 on human Kv1.3 [1] was found to be 0.108 µM; at human Kv1.3 [2] it was 0.092 µM.
